System: not listed separately
Test: log P by HPLC (EEC-Directive 79/831 Annex V. A8)
Type: physicochemical
Settings: gradient method, acetonitrile/0.1% aqueous phosphoric acid
Procedure: The log P values were determined according to EEC-Directive 79/831 Annex V. A8 by HPLC (gradient method, acetonitrile/0.1% aqueous phosphoric acid).

Compared with `Cc1ccc(Oc2noc(=O)n2S(=O)(=O)c2c(C)noc2C)c(C)c1` [Example 5], `Cc1ccc(C(C)C)c(Oc2noc(=O)n2S(=O)(=O)c2c(C)noc2C)c1` [Example 4] is higher in chromatographic logP: 3.63 for the first, 4.19 for the second.

Compared with `Cc1cccc(C)c1Oc1noc(=O)n1S(=O)(=O)c1c(C)noc1C` [Example 3], `Cc1ccccc1Oc1noc(=O)n1S(=O)(=O)c1c(C)noc1C` [Example 7] is lower in chromatographic logP: 3.54 for the first, 3.28 for the second.

Compared with `Cc1noc(C)c1S(=O)(=O)n1c(Oc2ccc(Cl)cc2)noc1=O` [Example 8], `COC(=O)c1ccc(Oc2noc(=O)n2S(=O)(=O)c2c(C)noc2C)cc1` [Example 2] is lower in chromatographic logP: 3.45 for the first, 3.07 for the second.

System: Phytophthora infestans
Test: whole plant or invertebrate
Type: in vivo, Phytophthora infestans (on tomato plants)
Settings: in Solanum lycopersicum, 72 h, read-out: Efficacy in %

Compared with `Cc1cc(C)cc(Oc2noc(=O)n2S(=O)(=O)c2c(N)noc2C)c1`, `Cc1cc(C)cc(Oc2noc(=O)n2S(=O)(=O)c2c(C)noc2C)c1` is higher in pest or weed control at 50 g/ha: 95% for the first, 96% for the second.

`Cc1ccc(Oc2noc(=O)n2S(=O)(=O)c2c(C)noc2C)cc1C` and `Cc1ccc(Oc2noc(=O)n2S(=O)(=O)c2c(N)noc2C)cc1C` are the same in pest or weed control at 50 g/ha: 95% for the first, 95% for the second.

`Cc1ccc(C)c(Oc2noc(=O)n2S(=O)(=O)c2c(C)noc2C)c1` and `Cc1ccc(Oc2noc(=O)n2S(=O)(=O)c2c(C)noc2C)c(C)c1` [drawing 40] are the same in pest or weed control at 50 g/ha: 94% for the first, 94% for the second.

Compared with `COC(=O)c1ccc(Oc2noc(=O)n2S(=O)(=O)c2c(C)noc2C)cc1` [drawing 39], `Cc1noc(C)c1S(=O)(=O)n1c(Oc2ccc(Cl)cc2)noc1=O` [drawing 44] is higher in pest or weed control at 50 g/ha: 86% for the first, 97% for the second.

Going from `Cc1ccc(C)c(Oc2noc(=O)n2S(=O)(=O)c2c(N)noc2C)c1` to `Cc1ccc(C(C)C)c(Oc2noc(=O)n2S(=O)(=O)c2c(C)noc2C)c1` [drawing 42], the pest or weed control at 50 g/ha falls from 96% to 95%.

First: Cc1cccc(C)c1Oc1noc(=O)n1S(=O)(=O)c1c(C)noc1C [drawing 41]
Second: Cc1ccccc1Oc1noc(=O)n1S(=O)(=O)c1c(C)noc1C [drawing 43]
The pest or weed control at 50 g/ha of the first is lower: 88% for the first, 94% for the second.

Going from `COc1ccc(Oc2noc(=O)n2S(=O)(=O)c2c(N)noc2C)cc1` to `Cc1noc(C)c1S(=O)(=O)n1c(N(C)C2CCCCC2)noc1=O`, the pest or weed control at 50 g/ha falls from 91% to 85%.
